Measurements: ChEMBL document CHEMBL1201862, “PubChem BioAssay data set” (2004)
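The compound was tested at five concentrations on cells cultured in 96-well plates, with a 48-hour exposure period. At the GI50, growth is halved.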 Active and inactive are the calls of the source. Rule as the data show it: active = GI50 up to about 1.1 µM and inactive = higher.

Legend:
Assay in all cases: inhibition of tumour cell growth, NCI panel, 48 h
786-0 = tested on: 786-0
CCRF-CEM = tested on: CCRF-CEM
COLO 205 = tested on: COLO 205
DU-145 = tested on: DU-145
HCT-116 = tested on: HCT-116
HCT-15 = tested on: HCT-15
KM12 = tested on: KM12
M14 = tested on: M14
MOLT-4 = tested on: MOLT-4
OVCAR-3 = tested on: OVCAR-3
OVCAR-5 = tested on: OVCAR-5
SF-539 = tested on: SF-539
SN12C = tested on: SN12C
SR = tested on: SR
T47D = tested on: T47D
TK-10 = tested on: TK-10
UO-31 = tested on: UO-31

Row | Compound | GI50 (786-0) | GI50 (CCRF-CEM) | GI50 (COLO 205) | GI50 (DU-145) | GI50 (HCT-116) | GI50 (HCT-15) | GI50 (KM12) | GI50 (M14) | GI50 (MOLT-4) | GI50 (OVCAR-3) | GI50 (OVCAR-5) | GI50 (SF-539) | GI50 (SN12C) | GI50 (SR) | GI50 (T47D) | GI50 (TK-10) | GI50 (UO-31)
1 | CC(C)(C)OC(=O)NC(Cc1ccc(OC(C)(C)C)cc1)C(=O)N[C@H]1CCC[C@H]1C(=O)NC(Cc1ccccc1)C(=O)N1CCCC1C(N)=O (some centres undefined) | > 100 µM (inactive) | > 100 µM (inactive) | > 100 µM (inactive) | > 100 µM (inactive) | > 100 µM (inactive) | > 100 µM | > 100 µM (inactive) | > 100 µM (inactive) | > 100 µM (inactive) | > 100 µM (inactive) | > 100 µM (inactive) | > 100 µM (inactive) | > 100 µM (inactive) | > 100 µM (inactive) | > 100 µM (inactive) | > 100 µM (inactive) | > 100 µM (inactive)
2 | O=C1/C(=C/c2ccc(O)cc2)CCc2ccccc21 | 16.7 µM (inactive) | 1.7 µM (inactive) | 22 µM (inactive) | 24.8 µM (inactive) | 16.1 µM (inactive) | 18.8 µM | 17.2 µM (inactive) | 20.2 µM (inactive) | 2.82 µM (inactive) | 23.3 µM (inactive) | 35.7 µM (inactive) | 18 µM (inactive) | 18.3 µM (inactive) | 5.45 µM (inactive) | 50.6 µM (inactive) | 51.5 µM (inactive) | 19.6 µM (inactive)
3 | Clc1ccc(/C=N/c2ccc3c(c2)Cc2ccccc2-3)c(Cl)c1 | > 100 µM (inactive) | 88.5 µM (inactive) | > 100 µM (inactive) | > 100 µM (inactive) | 58.1 µM (inactive) | 40.6 µM | > 100 µM (inactive) | > 100 µM (inactive) | > 100 µM (inactive) | > 100 µM (inactive) | > 100 µM (inactive) | > 100 µM (inactive) | > 100 µM (inactive) | 45.9 µM (inactive) | > 100 µM (inactive) | > 100 µM (inactive) | > 100 µM (inactive)
4 | Clc1ccccc1-c1nn2c(CCCCCCCCc3nnc4sc(-c5ccccc5Cl)nn34)nnc2s1 | > 100 µM (inactive) | 61.7 µM (inactive) | > 100 µM (inactive) | > 100 µM (inactive) | > 100 µM (inactive) | > 100 µM | 87.3 µM (inactive) | > 100 µM (inactive) | 16.5 µM (inactive) | > 100 µM (inactive) | > 100 µM (inactive) | > 100 µM (inactive) | > 100 µM (inactive) | > 100 µM (inactive) | > 100 µM (inactive) | > 100 µM (inactive) | > 100 µM (inactive)
5 | COc1cc(/C=C/C(=O)C2(C(=O)/C=C/c3cc(OC)c(OC)c(OC)c3)CCCCC2)cc(OC)c1OC | 43.2 µM (inactive) | 34.3 µM (inactive) | 78.9 µM (inactive) | 32.7 µM (inactive) | 31.1 µM (inactive) | 33.3 µM | 26.6 µM (inactive) | 29.9 µM (inactive) | – | 23.3 µM (inactive) | 94.2 µM (inactive) | 19 µM (inactive) | 35.2 µM (inactive) | 19.4 µM (inactive) | 76.2 µM (inactive) | 34.3 µM (inactive) | 60.7 µM (inactive)
6 | CC(C)(CO)CNc1cc(Cl)nc(N)n1 | > 100 µM (inactive) | > 100 µM (inactive) | > 100 µM (inactive) | > 100 µM (inactive) | > 100 µM (inactive) | > 100 µM | > 100 µM (inactive) | – | > 100 µM (inactive) | > 100 µM (inactive) | > 100 µM (inactive) | > 100 µM (inactive) | > 100 µM (inactive) | > 100 µM (inactive) | 43.2 µM (inactive) | > 100 µM (inactive) | > 100 µM (inactive)
7 | Cc1ccc(O)c(C(c2ccc(C(c3cc(C)ccc3O)c3cc(C)ccc3O)cc2)c2cc(C)ccc2O)c1 | 1.67 µM (inactive) | 2.28 µM (inactive) | 1.33 µM (inactive) | 1.74 µM (inactive) | 1.67 µM (inactive) | 1.8 µM | 1.67 µM (inactive) | 1.8 µM (inactive) | 2.9 µM (inactive) | 1.74 µM (inactive) | 1.84 µM (inactive) | 1.75 µM (inactive) | 1.65 µM (inactive) | 2.62 µM (inactive) | 1.75 µM (inactive) | 1.56 µM (inactive) | 1.85 µM (inactive)
8 | c1ccc2c[n+](Cc3ccnc4ccccc34)ccc2c1 | > 100 µM (inactive) | > 100 µM (inactive) | 67.1 µM (inactive) | > 100 µM (inactive) | > 100 µM (inactive) | > 100 µM | > 100 µM (inactive) | > 100 µM (inactive) | > 100 µM (inactive) | 67 µM (inactive) | > 100 µM (inactive) | > 100 µM (inactive) | > 100 µM (inactive) | > 100 µM (inactive) | > 100 µM (inactive) | > 100 µM (inactive) | > 100 µM (inactive)
9 | CC1CN(c2cc3c(cc2F)c(=O)c(C(=O)O)cn3-c2ccc(N3CCN(C)CC3)cn2)CC(C)N1 (centres undefined) | > 100 µM (inactive) | > 100 µM (inactive) | 52.8 µM (inactive) | > 100 µM (inactive) | > 100 µM (inactive) | > 100 µM | 87.5 µM (inactive) | > 100 µM (inactive) | 99.5 µM (inactive) | > 100 µM (inactive) | > 100 µM (inactive) | > 100 µM (inactive) | > 100 µM (inactive) | > 100 µM (inactive) | > 100 µM (inactive) | > 100 µM (inactive) | > 100 µM (inactive)
10 | N=c1oc2ccccc2cc1C(=O)Nc1cccc2ccccc12 | 80 µM (inactive) | > 100 µM (inactive) | > 100 µM (inactive) | > 100 µM (inactive) | > 100 µM (inactive) | > 100 µM | > 100 µM (inactive) | > 100 µM (inactive) | > 100 µM (inactive) | > 100 µM (inactive) | > 100 µM (inactive) | > 100 µM (inactive) | > 100 µM (inactive) | > 100 µM (inactive) | > 100 µM (inactive) | – | –
11 | CCOC(=O)C(NC(=O)CC)(N1CCN(c2cc3c(cc2F)c(=O)c(C(=O)O)cn3C2CC2)CC1)C(F)(F)F (centres undefined) | > 100 µM (inactive) | 91.8 µM (inactive) | > 100 µM (inactive) | > 100 µM (inactive) | > 100 µM (inactive) | > 100 µM | > 100 µM (inactive) | > 100 µM (inactive) | > 100 µM (inactive) | > 100 µM (inactive) | > 100 µM (inactive) | > 100 µM (inactive) | > 100 µM (inactive) | > 100 µM (inactive) | > 100 µM (inactive) | > 100 µM (inactive) | > 100 µM (inactive)
12 | O=C1/C(=C2\Sc3c(ccc(Cl)c3Cl)C2=O)Sc2c1ccc(Cl)c2Cl | > 100 µM (inactive) | > 100 µM (inactive) | > 100 µM (inactive) | > 100 µM (inactive) | > 100 µM (inactive) | > 100 µM | > 100 µM (inactive) | > 100 µM (inactive) | > 100 µM (inactive) | 12.5 µM (inactive) | > 100 µM (inactive) | > 100 µM (inactive) | > 100 µM (inactive) | > 100 µM (inactive) | > 100 µM (inactive) | > 100 µM (inactive) | > 100 µM (inactive)
13 | Cc1cc2c([N+](=O)[O-])cc3c(c2o1)C(=O)C=CC3=O | 2.01 µM (inactive) | 1.43 µM (inactive) | 2.3 µM (inactive) | 7.93 µM (inactive) | 5.51 µM (inactive) | 15 µM | 16.6 µM (inactive) | 5.58 µM (inactive) | 0.415 µM (active) | 5.64 µM (inactive) | 20 µM (inactive) | 15.1 µM (inactive) | 6.19 µM (inactive) | 5.41 µM (inactive) | 3.12 µM (inactive) | 2.38 µM (inactive) | 1.67 µM (inactive)
14 | C/C(=C\c1ccccc1)C(=O)NCc1ccc(C(=O)NCCc2c[nH]c3ccccc23)cc1 | 76 µM (inactive) | 2.39 µM (inactive) | 37.6 µM (inactive) | > 100 µM (inactive) | 58.3 µM (inactive) | > 100 µM | 33.2 µM (inactive) | > 100 µM (inactive) | 60.7 µM (inactive) | 42 µM (inactive) | > 100 µM (inactive) | > 100 µM (inactive) | > 100 µM (inactive) | > 100 µM (inactive) | > 100 µM (inactive) | 16.4 µM (inactive) | 51.6 µM (inactive)
15 | COc1cc(C=C2C(C)=NN(c3cccc(Cl)c3)C23SCC(=O)N3c2nc3ccccc3s2)ccc1O (centres undefined) | 29.5 µM (inactive) | 4.56 µM (inactive) | 16.9 µM (inactive) | 32.4 µM (inactive) | 24.7 µM (inactive) | 30.4 µM | 30.8 µM (inactive) | 40.3 µM (inactive) | 15.8 µM (inactive) | 27 µM (inactive) | 46.3 µM (inactive) | 24.3 µM (inactive) | 30.1 µM (inactive) | 13.2 µM (inactive) | 33.3 µM (inactive) | 35.3 µM (inactive) | 30.6 µM (inactive)
16 | O=C1CCCCC/C1=C\c1ccc([N+](=O)[O-])cc1 | 19.7 µM (inactive) | 26.7 µM (inactive) | 24 µM (inactive) | 41.4 µM (inactive) | 22.7 µM (inactive) | – | 19.8 µM (inactive) | 32.1 µM (inactive) | 41.7 µM (inactive) | 21.9 µM (inactive) | 31.4 µM (inactive) | 26.5 µM (inactive) | 23.7 µM (inactive) | 40.1 µM (inactive) | 31.5 µM (inactive) | 28.5 µM (inactive) | 24.5 µM (inactive)
17 | Cc1cnc2[nH]c(-c3cccc(F)c3)cc(=O)c2c1 | 0.0384 µM (active) | 0.0353 µM (active) | 0.0214 µM (active) | 0.0459 µM (active) | 0.034 µM (active) | 0.0267 µM | 0.0327 µM (active) | 0.0342 µM (active) | 0.0531 µM (active) | 0.0139 µM (active) | 0.0738 µM (active) | 0.0326 µM (active) | 0.0687 µM (active) | 0.0229 µM (active) | 15.6 µM (inactive) | 0.161 µM (active) | 0.0724 µM (active)
